Results published in patent publication US6809214B2, “Shortened synthesis of 3,3-diarylpropylamine derivatives” (Schwartz Pharma AG, priority 2000, dated 2004).
Converted amounts (≈) assume the structure as drawn. Counter-ions that a name gives are not always drawn.

How the values were obtained:
[1] = Solubilities at ambient temperature; type: physicochemical

melting point	SMILES	further results
97 to 99 °C	COC(=O)c1ccc2c(c1)C(c1ccccc1)CC(=O)O2 (racemic) [Example 5a]	–
85.9 °C	CC(C)OC(=O)c1ccc2c(c1)C(c1ccccc1)CC(=O)O2 (racemic) [Example 5c]	–
143.7 °C	COC(=O)c1ccc(O)c([C@H](CCN(C(C)C)C(C)C)c2ccccc2)c1 [Example 8b, (R)-(−)-3-(3-Diisopropylamino-1-phenylpropyl)-4-hydroxybenzoic acid methyl ester]	–

The remaining lines, values behind:

SMILES	melting point	further results
O=C1C[C@H](c2ccccc2)c2cc(C(=O)O)ccc2O1 (as salt: salt) [Example 3, (R)-4-Phenyl-2-chromanone-6-carboxylic acid]	197.5 °C	–
O=C1CC(c2ccccc2)c2cc(C(=O)O)ccc2O1 (racemic) [Example 1, (R,S)-4-Phenyl-2-chromanone-6-carboxylic acid]	246 °C	–
O=C1C[C@H](c2ccccc2)c2cc(C(=O)O)ccc2O1 [Example 3, (R)-4-Phenyl-2-chromanone-6-carboxylic acid]	224.9 °C	–
CC(C)N(CC[C@H](c1ccccc1)c1cc(C(=O)O)ccc1O)C(C)C [Example 9, (R)-(−)-3-(Diisopropylamino-1-phenylpropyl)-4-hydroxybenzoic acid]	102.3 °C	–
CC(C)N(CC[C@H](c1ccccc1)c1cc(CO)ccc1O)C(C)C [Example 13, (R)-2-(3-diisopropylamino-1-phenylpropyl)-4-hydroxymethylphenol]	–	solubility ([1]; in water): ~10000 µg/mL (≈ 29.3 mM); solubility ([1]; organic solvent or mixture, in 2-butanone): < 200 µg/mL; solubility ([1]; organic solvent or mixture, in dichloromethane): < 200 µg/mL; solubility ([1]; organic solvent or mixture, in ethyl acetate): < 200 µg/mL; solubility ([1]; organic solvent or mixture, in methanol): > 50000 µg/mL
